Molecules are shown by their SMILES. Bridge positions count the residues as written; N and C are the ends. Square brackets hold non-standard residues; d marks the D form. Peptide text beside a SMILES is read from it. Hyp = O=C(O)[C@@H]1C[C@@H](O)CN1

One series deals with T1, hAMY3 receptor (Homo sapiens, UniProt O60896+P30988).
T1 sequence (P30988 25-474): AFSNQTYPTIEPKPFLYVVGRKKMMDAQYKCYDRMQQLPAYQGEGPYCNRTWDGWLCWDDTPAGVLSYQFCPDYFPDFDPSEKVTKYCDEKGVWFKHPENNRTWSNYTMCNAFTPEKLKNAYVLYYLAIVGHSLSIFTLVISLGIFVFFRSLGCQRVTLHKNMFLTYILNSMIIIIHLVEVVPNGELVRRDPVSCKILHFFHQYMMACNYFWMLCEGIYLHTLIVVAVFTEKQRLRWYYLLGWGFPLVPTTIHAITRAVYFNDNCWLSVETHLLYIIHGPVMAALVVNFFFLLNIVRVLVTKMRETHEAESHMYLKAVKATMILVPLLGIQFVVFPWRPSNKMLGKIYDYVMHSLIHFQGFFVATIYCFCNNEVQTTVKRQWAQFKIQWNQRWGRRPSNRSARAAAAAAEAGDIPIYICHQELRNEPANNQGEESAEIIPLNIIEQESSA
T1 sequence (O60896 24-148 partner): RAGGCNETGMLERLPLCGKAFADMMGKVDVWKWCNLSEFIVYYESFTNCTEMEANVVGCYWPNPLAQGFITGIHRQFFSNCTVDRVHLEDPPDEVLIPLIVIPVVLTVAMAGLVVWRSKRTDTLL
Kind of series: cAMP assay for in vitro receptor activation, hAMY3-R. In kind it is cell-based. The settings on record: cAMP assay, hAMY3 receptor; read-out: hAMY3R EC50. In short, it runs like this: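 Receptor activation was measured as cAMP accumulation in a monoclonal cell line stably overexpressing hAMY3. Stimulation with graded doses lasted 30 min at room temperature in the presence of 0.5 mM IBMX, with human amylin as positive control.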

The nature of series [1]: Physical stability of peptide analogues (Thioflavin T fibrillation). The settings on record: maximum ThT signal normalized between hAMY maximum and buffer background; 40° C., shaking, four days; pH 7 per table title. The format is physicochemical. The gist of the method: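 ThT fluorescence (450 nm excitation, 480 nm emission; 4 μM dye) was read every 10 min over four days at 40° C under 700 rpm shaking stress, after 1 h in pH 4 acetate or pH 7 phosphate (50 mM). Peak smoothed signal expressed as percent, scaled between buffer background and hAMY maximum.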

The target in a further series is hAM1 receptor (Homo sapiens, UniProt O60895+Q16602). Kind of series: cAMP assay for in vitro receptor activation, hAM1-R. The format is cell-based. The settings on record: cAMP assay, hAM1 receptor; read-out: hAM1R EC50. The gist of the method: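 Read-out is intracellular cAMP as a measure of receptor activation. Cells stably overexpressing hAM1 were subcloned to a monoclonal line, then thawed and seeded at 8000 cells/well in DPBS with 0.05% casein and the phosphodiesterase inhibitor IBMX at 0.5 mM.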
hAM1 receptor, sequence (Q16602 23-461): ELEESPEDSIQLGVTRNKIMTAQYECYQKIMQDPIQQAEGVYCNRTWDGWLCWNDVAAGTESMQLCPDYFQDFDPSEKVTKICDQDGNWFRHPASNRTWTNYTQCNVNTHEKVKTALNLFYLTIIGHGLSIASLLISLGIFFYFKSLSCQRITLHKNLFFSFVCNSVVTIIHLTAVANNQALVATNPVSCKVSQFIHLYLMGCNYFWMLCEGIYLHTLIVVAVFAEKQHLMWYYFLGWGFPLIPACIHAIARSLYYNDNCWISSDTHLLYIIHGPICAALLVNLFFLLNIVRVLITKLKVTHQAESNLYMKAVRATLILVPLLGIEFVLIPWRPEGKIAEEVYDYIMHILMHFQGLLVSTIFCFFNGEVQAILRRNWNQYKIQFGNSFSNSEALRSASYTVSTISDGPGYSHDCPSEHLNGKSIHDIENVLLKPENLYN
hAM1 receptor, sequence (O60895 43-175 partner): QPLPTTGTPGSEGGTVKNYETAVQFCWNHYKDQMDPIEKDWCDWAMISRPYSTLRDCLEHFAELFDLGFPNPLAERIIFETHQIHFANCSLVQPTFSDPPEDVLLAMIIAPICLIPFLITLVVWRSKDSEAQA

Turning to `CC[C@H](C)[C@H](NC(=O)[C@H](CCC(N)=O)NC(=O)[C@H](Cc1c[nH]cn1)NC(=O)[C@H](C)NC(=O)[C@H](CC(C)C)NC(=O)[C@H](Cc1c[nH]c2ccccc12)NC(=O)[C@H](CCC(N)=O)NC(=O)[C@@H](NC(=O)[C@@H](NC(=O)[C@@H]1CSSC[C@H](NC(=O)CN)C(=O)N[C@@H](CCCNC(=N)N)C(=O)N[C@@H]([C@@H](C)O)C(=O)NCC(=O)N[C@@H]([C@@H](C)O)C(=O)N1)[C@@H](C)O)C(C)C)C(=O)N[C@@H](Cc1ccc(O)cc1)C(=O)N[C@@H](CCC(N)=O)C(=O)N[C@@H](Cc1ccccc1)C(=O)N[C@H](C(=O)N[C@@H](CC(=O)O)C(=O)N[C@@H](CCCCN)C(=O)N[C@@H](CC(=O)O)C(=O)N[C@@H](CCCCN)C(=O)N[C@@H](CC(=O)O)C(=O)N[C@@H](CC(N)=O)C(=O)N[C@H](C(=O)N[C@@H](C)C(=O)N1CCC[C@H]1C(=O)N[C@@H](CCCNC(=N)N)C(=O)N[C@@H](CO)C(=O)N[C@@H](CC(N)=O)C(=O)N[C@H](C(=O)NCC(=O)N1CCC[C@H]1C(=O)N[C@@H](CCC(N)=O)C(=O)NCC(=O)N[C@@H](Cc1ccc(O)cc1)C(N)=O)C(C)C)C(C)C)[C@@H](C)O` [compound 346] (H-GCRTGTCTVQWLAHQIYQFTDKDKDNVAPRSNVGPQGY-NH2; disulfide 2-7; N-terminus assumed), the figures for the EC50 at hAMY3 receptor and at hAM1 receptor were 0.085 nM and > 5000 nM, respectively. Also, the “Max ThT signal (%)” value in series [1] is 1.200%.
For the compound `CC[C@H](C)[C@H](NC(=O)[C@H](CCC(N)=O)NC(=O)[C@H](Cc1c[nH]cn1)NC(=O)[C@H](C)NC(=O)[C@H](CC(C)C)NC(=O)[C@H](Cc1c[nH]c2ccccc12)NC(=O)[C@H](CCC(N)=O)NC(=O)[C@@H](NC(=O)[C@@H](NC(=O)[C@@H]1CSSC[C@H](NC(=O)CN)C(=O)N[C@@H](CCCNC(=N)N)C(=O)N[C@@H]([C@@H](C)O)C(=O)NCC(=O)N[C@@H]([C@@H](C)O)C(=O)N1)[C@@H](C)O)C(C)C)C(=O)N[C@@H](Cc1ccc(O)cc1)C(=O)N[C@@H](CCC(N)=O)C(=O)N[C@@H](Cc1ccccc1)C(=O)N[C@H](C(=O)N[C@@H](CC(=O)O)C(=O)N[C@@H](CCCCN)C(=O)N[C@@H](CC(=O)O)C(=O)N[C@@H](CCCCN)C(=O)N[C@@H](CC(=O)O)C(=O)N[C@@H](CC(N)=O)C(=O)N[C@H](C(=O)N[C@@H](C)C(=O)N1CCC[C@H]1C(=O)N[C@@H](CCCNC(=N)N)C(=O)N[C@@H](CO)C(=O)N[C@@H](CCCCN)C(=O)N[C@H](C(=O)NCC(=O)N1CCC[C@H]1C(=O)N[C@@H](CC(N)=O)C(=O)NCC(=O)N1C[C@H](O)C[C@H]1C(N)=O)C(C)C)C(C)C)[C@@H](C)O` [compound 347] (H-GCRTGTCTVQWLAHQIYQFTDKDKDNVAPRSKVGPNG[Hyp]-NH2; disulfide 2-7; N-terminus assumed), the values for the 50% effective concentration (EC50) at hAMY3 receptor and on hAM1 receptor were 0.068 nM and > 5000 nM, respectively. In addition, in series [1], the “Max ThT signal (%)” value is 15.500%.
`CC[C@H](C)[C@H](NC(=O)[C@H](CC(N)=O)NC(=O)[C@@H](NC(=O)[C@H](CCCNC(=N)N)NC(=O)[C@@H]1CCCN1C(=O)[C@H](C)NC(=O)[C@@H](NC(=O)[C@H](CC(N)=O)NC(=O)[C@H](CC(=O)O)NC(=O)[C@H](CCCCN)NC(=O)[C@H](CC(=O)O)NC(=O)[C@H](CCCCN)NC(=O)[C@H](CC(=O)O)NC(=O)[C@@H](NC(=O)[C@H](Cc1ccccc1)NC(=O)[C@H](CCC(N)=O)NC(=O)[C@H](Cc1ccc(O)cc1)NC(=O)[C@@H](NC(=O)[C@H](CCC(N)=O)NC(=O)[C@H](Cc1c[nH]cn1)NC(=O)[C@H](C)NC(=O)[C@H](CC(C)C)NC(=O)[C@H](Cc1c[nH]c2ccccc12)NC(=O)[C@H](CCC(N)=O)NC(=O)[C@@H](NC(=O)[C@@H](NC(=O)[C@@H]1CSSC[C@H](NC(=O)CN)C(=O)N[C@@H](CCCNC(=N)N)C(=O)N[C@@H]([C@@H](C)O)C(=O)NCC(=O)N[C@@H]([C@@H](C)O)C(=O)N1)[C@@H](C)O)C(C)C)[C@@H](C)CC)[C@@H](C)O)C(C)C)[C@@H](C)O)C(=O)NCC(=O)N1CCC[C@H]1C(=O)N[C@@H](CC(N)=O)C(=O)NCC(=O)N[C@@H](Cc1ccc(O)cc1)C(N)=O` [compound 348] (H-GCRTGTCTVQWLAHQIYQFTDKDKDNVAPRTNIGPNGY-NH2; disulfide 2-7; N-terminus assumed): the 50% effective concentration (EC50) was 0.041 nM at hAMY3 receptor and > 5000 nM at hAM1 receptor. In addition, in series [1], the “Max ThT signal (%)” value is reported as 2.750%.
The corresponding values for `CC[C@H](C)[C@H](NC(=O)[C@H](CCC(N)=O)NC(=O)[C@H](Cc1c[nH]cn1)NC(=O)[C@H](C)NC(=O)[C@H](CC(C)C)NC(=O)[C@H](Cc1c[nH]c2ccccc12)NC(=O)[C@H](CCC(N)=O)NC(=O)[C@@H](NC(=O)[C@@H](NC(=O)[C@@H]1CSSC[C@H](NC(=O)CN)C(=O)N[C@@H](CCCNC(=N)N)C(=O)N[C@@H]([C@@H](C)O)C(=O)NCC(=O)N[C@@H]([C@@H](C)O)C(=O)N1)[C@@H](C)O)C(C)C)C(=O)N[C@@H](Cc1ccc(O)cc1)C(=O)N[C@@H](CCC(N)=O)C(=O)N[C@@H](Cc1ccccc1)C(=O)N[C@H](C(=O)N[C@@H](CC(=O)O)C(=O)N[C@@H](CCCCN)C(=O)N[C@@H](CC(=O)O)C(=O)N[C@@H](CCCCN)C(=O)N[C@@H](CC(=O)O)C(=O)N[C@@H](CC(N)=O)C(=O)N[C@H](C(=O)N[C@@H](C)C(=O)N1CCC[C@H]1C(=O)N[C@@H](CCCNC(=N)N)C(=O)N[C@H](C(=O)N[C@@H](CCCCN)C(=O)N[C@H](C(=O)NCC(=O)N1CCC[C@H]1C(=O)N[C@@H](CCC(N)=O)C(=O)NCC(=O)N[C@@H](Cc1ccc(O)cc1)C(N)=O)C(C)C)[C@@H](C)O)C(C)C)[C@@H](C)O` [compound 354] (H-GCRTGTCTVQWLAHQIYQFTDKDKDNVAPRTKVGPQGY-NH2; disulfide 2-7; N-terminus assumed) are 0.091 nM, > 5000 nM and 17.400%.
In the case of `CC[C@H](C)[C@H](NC(=O)[C@H](CCC(N)=O)NC(=O)[C@H](Cc1c[nH]cn1)NC(=O)[C@H](C)NC(=O)[C@H](CC(C)C)NC(=O)[C@H](Cc1c[nH]c2ccccc12)NC(=O)[C@H](CCC(N)=O)NC(=O)[C@@H](NC(=O)[C@@H](NC(=O)[C@@H]1CSSC[C@H](NC(=O)CN)C(=O)N[C@@H](CCCNC(=N)N)C(=O)N[C@@H]([C@@H](C)O)C(=O)NCC(=O)N[C@@H]([C@@H](C)O)C(=O)N1)[C@@H](C)O)C(C)C)C(=O)N[C@@H](Cc1ccc(O)cc1)C(=O)N[C@@H](CCC(N)=O)C(=O)N[C@@H](Cc1ccccc1)C(=O)N[C@H](C(=O)N[C@@H](CC(=O)O)C(=O)N[C@@H](CCCCN)C(=O)N[C@@H](CC(=O)O)C(=O)N[C@@H](CCCCN)C(=O)N[C@@H](CC(=O)O)C(=O)N[C@@H](CC(N)=O)C(=O)N[C@H](C(=O)N[C@@H](C)C(=O)N1CCC[C@H]1C(=O)N[C@@H](CCCNC(=N)N)C(=O)N[C@H](C(=O)N[C@@H](CC(N)=O)C(=O)N[C@H](C(=O)N[C@@H](CO)C(=O)N1CCC[C@H]1C(=O)N[C@@H](CC(N)=O)C(=O)NCC(=O)N1C[C@H](O)C[C@H]1C(N)=O)C(C)C)[C@@H](C)O)C(C)C)[C@@H](C)O` [compound 358] (H-GCRTGTCTVQWLAHQIYQFTDKDKDNVAPRTNVSPNG[Hyp]-NH2; disulfide 2-7; N-terminus assumed), the half-maximal effective concentration (EC50) on hAMY3 receptor is 0.071 nM; at hAM1 receptor, > 5000 nM. Also, in series [1], the “Max ThT signal (%)” value stood at 24.350%.
Regarding `CC[C@H](C)[C@H](NC(=O)[C@H](CCC(N)=O)NC(=O)[C@H](Cc1c[nH]cn1)NC(=O)[C@H](C)NC(=O)[C@H](CC(C)C)NC(=O)[C@H](CCCNC(=N)N)NC(=O)[C@H](CCC(N)=O)NC(=O)[C@@H](NC(=O)[C@@H](NC(=O)[C@@H]1CSSC[C@H](NC(=O)CN)C(=O)N[C@@H](CCCNC(=N)N)C(=O)N[C@@H](Cc2ccccc2)C(=O)NCC(=O)N[C@@H]([C@@H](C)O)C(=O)N1)[C@@H](C)O)C(C)C)C(=O)N[C@@H](Cc1ccc(O)cc1)C(=O)N[C@@H](CCC(N)=O)C(=O)N[C@@H](Cc1ccccc1)C(=O)N[C@H](C(=O)N[C@@H](CC(=O)O)C(=O)N[C@@H](CCCCN)C(=O)N[C@@H](CC(=O)O)C(=O)N[C@@H](CCCCN)C(=O)N[C@@H](CC(=O)O)C(=O)N[C@@H](CC(N)=O)C(=O)N[C@H](C(=O)N[C@@H](C)C(=O)N1CCC[C@H]1C(=O)N[C@@H](CCCNC(=N)N)C(=O)N[C@@H](CO)C(=O)N[C@@H](CC(N)=O)C(=O)N[C@H](C(=O)NCC(=O)N1CCC[C@H]1C(=O)N[C@@H](CCC(N)=O)C(=O)NCC(=O)N[C@@H](Cc1ccc(O)cc1)C(N)=O)C(C)C)C(C)C)[C@@H](C)O` [compound 374] (H-GCRFGTCTVQRLAHQIYQFTDKDKDNVAPRSNVGPQGY-NH2; disulfide 2-7; N-terminus assumed), the results for the EC50 on hAMY3 receptor and on hAM1 receptor were 0.021 nM and 12 nM, respectively. Further, the “Max ThT signal (%)” value in series [1] was 4.800%.

For the origin of these results see patent US12139520B2 (priority 2020, dated 2024).
